# Structures can show the parent of a compound that is named as a salt. Where two headings read alike, the source gives them in different places.
# What was measured:
# [1] = system: TGF-beta-induced phosphorylation of Smad2 and Smad3 in Mv1-Lu cells; assay: Inhibition of Smad2/3 phosphorylation in Mv1Lu cells (Example 35A); type: cell-based, mink Mustela vison; details: Neogale vison, read-out: TβR activity (Example 35A)
# Procedure: Inhibition of Smad2/3 Phosphorylation in Mv1Lu Cells by TGF-bta Receptor I Kinase Inhibitors
# This assay was used to determine the inhibitory potency of compounds on TGF-beta-induced phosphorylation of Smad2 (Ser465/467) and Smad3 (Ser423/425). Mv1-Lu cells (lung epithelial cell line from mink Mustela vison; ATCC number: CCL-64) were seeded in DMEM (Invitrogen) supplemented with 10% fetal bovine serum (Pan Biotech) at a defined cell density in 24-well or 96-well plates (24-well plate: 1.5×10^5 cells per well; 96-well plate: 4×10^4 cells per well). Cell cultures were incubated in DMEM at 37° C. and 10% CO2. On the next day, the medium was replaced and cells were serum-starved for 16-20 hours. The following day, serial dilutions of compounds were added to the wells, pre-incubated for 1.5 hrs before recombinant TGF-beta 1 ligand (final concentration 5 ng/ml; R&D systems) was added. After one hour of ligand stimulation, lysates were prepared and analyzed using an enzyme-linked immunosorbent assay kit (PathScan Phospho-Smad2 Kit, Cell Signaling Technologies). The ELISA detects phosphorylated Smad2 as well as phosphorylated Smad3 with the phospho-specific antibody. TGF-beta stimulated cells and unstimulated cells served as positive and negative controls (100% and background control). The concentration of the vehicle DMSO was kept constant at 0.2% (v/v) in all wells. Dose-response relationships were fitted using curve fitting algorithms of the RS1 statistics software package (Brooks Automation Inc. RS/1—Statistical Tools Handbook. Release 6.2) to determine the concentration at which half-maximal inhibition (IC50) of Smad2/3 phosphorylation was achieved.
# GST-ALK5 = target: T1, GST-ALK5 (Homo sapiens, UniProt P36897); assay: In-vitro (enzyme) kinase assay, 384-well flashplate (Example 36); type: biochemical; details: GST-ALK5, GST-SMAD2 substrate, 3 mM ATP, 30° C., 45 min; read-out: TβR activity (Example 36)
# T1 sequence (P36897 34-503): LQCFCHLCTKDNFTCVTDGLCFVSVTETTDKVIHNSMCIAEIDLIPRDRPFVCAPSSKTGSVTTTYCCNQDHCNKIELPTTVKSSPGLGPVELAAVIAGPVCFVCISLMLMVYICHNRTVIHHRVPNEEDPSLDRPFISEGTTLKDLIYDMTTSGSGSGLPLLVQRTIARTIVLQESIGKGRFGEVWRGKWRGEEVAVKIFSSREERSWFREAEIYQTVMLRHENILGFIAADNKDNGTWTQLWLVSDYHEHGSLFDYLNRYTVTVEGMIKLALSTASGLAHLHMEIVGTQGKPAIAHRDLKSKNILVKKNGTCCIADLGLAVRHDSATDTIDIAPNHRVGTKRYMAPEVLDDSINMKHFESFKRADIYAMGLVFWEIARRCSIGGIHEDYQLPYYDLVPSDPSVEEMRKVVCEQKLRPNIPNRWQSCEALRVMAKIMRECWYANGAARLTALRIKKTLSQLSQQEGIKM
# Procedure: In-vitro (Enzyme) Assay for Determination of the Efficacy of Inhibitors of the Inhibition of TGF-beta-Mediated Effects
# The kinase assay was carried out as 384-well flashplate assay. 31.2 nM of GST-ALK5, 439 nM of GST-SMAD2 and 3 mM of ATP (with 0.3 μCi of ^33P-ATP/well) were incubated in a total volume of 35 μl (20 mM of HEPES, 10 mM of MgCl2, 5 mM of MnCl2, 1 mM of DTT, 0.1 of BSA, pH 7.4) without or with test substance (5-10 concentrations) at 30° C. for 45 min. The reaction was stopped using 25 μl of 200 mM EDTA solution, filtered with suction at room temperature after 30 min, and the wells were washed with 3 times 100 μl of 0.9% NaCl solution. Radioactivity was measured in the TopCount. The IC50 values were calculated using RS1.
# [2] = Mv1-Lu cells, TGF-beta 1 5 ng/ml, phospho-Smad2/3 ELISA
SMILES,"IC50 [1, 2] [nM]",IC50 (GST-ALK5) [nM],IC50 [1] [nM]
"Fc1ccc(C(F)(F)F)cc1-c1cc(-c2cncc(-c3cnn(CCN4CCCC4)c3)c2)c2cccnc2n1 [compound 19, 2-(2-Fluoro-5-trifluoromethyl-phenyl)-4-{5-[1-(2-pyrrolidin-1-yl-ethyl)-1H-pyrazol-4-yl]-pyridin-3-yl}-[1,8]naphthyridine]",< 100,< 100,–
"Fc1ccc(Cl)cc1-c1cc(-c2cncc(-c3cnn(CCN4CCCC4)c3)c2)c2cccnc2n1 [compound 21, 2-(5-Chloro-2-fluoro-phenyl)-4-{5-[1-(2-pyrrolidin-1-yl-ethyl)-1H-pyrazol-4-yl]-pyridin-3-yl}-[1,8]naphthyridine]",< 100,< 100,–
"Cn1cc(-c2cc(-c3cc(-c4cc(Cl)ccc4F)nc4ncccc34)c[n+]([O-])c2)cn1 [compound 22, 2-(5-chloro-2-fluoro-phenyl)-4-[5-(1-methyl-1H-pyrazol-4-yl)-1-oxy-pyridin-3-yl]-[1,8]naphthyridine]",1000 to 10000,1000 to 10000,–
"Fc1ccccc1-c1cc(-c2cncc(-c3cnn(CCN4CCCC4)c3)c2)c2cccnc2n1 [compound 24, 2-(2-Fluoro-phenyl)-4-{5-[1-(2-pyrrolidin-1-yl-ethyl)-1H-pyrazol-4-yl]-pyridin-3-yl}-[1,8]naphthyridine]",< 100,< 100,–
"CN1CCC(n2cc(-c3cncc(-c4cc(-c5cc(Cl)ccc5F)nc5ncccc45)c3)cn2)CC1 [compound 25, 2-(5-chloro-2-fluoro-phenyl)-4-{5-[1-(1-methyl-piperidin-4-yl)-1H-pyrazol-4-yl]-pyridin-3-yl}-[1,8]naphthyridine]",–,< 100,< 100
"Fc1ccc(F)c(-c2cc(-c3cncc(-c4cnn(CCN5CCCC5)c4)c3)c3cccnc3n2)c1 [compound 26, 2-(2,5-Difluoro-phenyl)-4-{5-[1-(2-pyrrolidin-1-yl-ethyl)-1H-pyrazol-4-yl]-pyridin-3-yl}-[1,8]naphthyridine]",< 100,< 100,–
"Fc1ccccc1-c1cc(-c2cncc(-c3cnn(C4CCNCC4)c3)c2)c2cccnc2n1 [compound 29, 2-(2-Fluoro-phenyl)-4-[5-(1-piperidin-4-yl-1H-pyrazol-4-yl)-pyridin-3-yl]-[1,8]naphthyridine dihydrochloride]",–,< 100,< 100
"CN1CCC(n2cc(-c3cncc(-c4cc(-c5cc(F)ccc5F)nc5ncccc45)c3)cn2)CC1 [compound 35, 2-(2,5-Difluoro-phenyl)-4-{5-[1-(1-methyl-piperidin-4-yl)-1H-pyrazol-4-yl]-pyridin-3-yl}-[1,8]naphthyridine]",< 100,< 100,–
"CCN1CCC(n2cc(-c3cncc(-c4cc(-c5cc(Cl)ccc5F)nc5ncccc45)c3)cn2)CC1 [compound 46, 2-(5-Chloro-2-fluoro-phenyl)-4-{5-[1-(1-ethyl-piperidin-4-yl)-1H-pyrazol-4-yl]-pyridin-3-yl}-[1,8]naphthyridine]",< 100,< 100,–
"Fc1ccc(F)c(-c2cc(-c3cncc(-c4cnn(C5CCNCC5)c4)c3)c3cccnc3n2)c1 [compound 47, 2-(2,5-Difluoro-phenyl)-4-[5-(1-piperidin-4-yl-1H-pyrazol-4-yl)-pyridin-3-yl]-[1,8]naphthyridine]",< 100,< 100,–
"CN1CCC(n2cc(-c3cncc(-c4cc(-c5cc(Cl)ccc5F)nc5ncccc45)n3)cn2)CC1 [compound 51, 2-(5-Chloro-2-fluoro-phenyl)-4-{6-[1-(1-methyl-piperidin-4-yl)-1H-pyrazol-4-yl]-pyrazin-2-yl}-[1,8]naphthyridine]",< 100,< 100,–

# Continued, in another order:
"IC50 [1, 2] [nM]",IC50 (GST-ALK5) [nM],SMILES,IC50 [1] [nM]
> 10000,> 10000,"Fc1ccc(Cl)cc1-c1cc(-c2ccnc(-c3ccccc3)c2)c2cccnc2n1 [compound 20, 2-(5-Chloro-2-fluoro-phenyl)-4-(2-phenyl-pyridin-4-yl)-[1,8]naphthyridine]",–
< 100,< 100,"CN1CCC(n2cc(-c3cncc(-c4cc(-c5cc(C(F)(F)F)ccc5F)nc5ncccc45)c3)cn2)CC1 [compound 23, 2-(2-fluoro-5-trifluoromethyl-phenyl)-4-{5-[1-(1-methyl-piperidin-4-yl)-1H-pyrazol-4-yl]-pyridin-3-yl}-[1,8]naphthyridine]",–
< 100,< 100,"CN1CCC(n2cc(-c3cncc(-c4cc(-c5ccccc5F)nc5ncccc45)c3)cn2)CC1 [compound 30, 2-(2-fluoro-phenyl)-4-{5-[1-(1-methyl-piperidin-4-yl)-1H-pyrazol-4-yl]-pyridin-3-yl}-[1,8]naphthyridine]",–
> 10000,1000 to 10000,"Cn1cc(-c2cc(-c3cc(-c4cc(Cl)ccc4F)nc4ncccc34)cnc2N)cn1 [compound 31, 5-[2-(5-chloro-2-fluoro-phenyl)-[1,8]naphthyridin-4-yl]-3-(1-methyl-1H-pyrazol-4-yl)-pyridin-2-ylamine]",–
100 to 1000,< 100,"Fc1ccc(C(F)(F)F)cc1-c1cc(-c2cncc(-c3cnn(CCN4CCOCC4)c3)c2)c2cccnc2n1 [compound 34, 2-(2-Fluoro-5-trifluoromethyl-phenyl)-4-{5-[1-(2-morpholin-4-yl-ethyl)-1H-pyrazol-4-yl]-pyridin-3-yl}-[1,8]naphthyridine]",–
100 to 1000,< 100,"OCCn1cc(-c2cncc(-c3cc(-c4cc(C(F)(F)F)ccc4F)nc4ncccc34)c2)cn1 [compound 37, 2-(4-{5-[2-(2-Fluoro-5-trifluoromethyl-phenyl)-[1,8]naphthyridin-4-yl]-pyridin-3-yl}-pyrazol-1-yl)-ethanol]",–
< 100,< 100,"COCCN1CCC(n2cc(-c3cncc(-c4cc(-c5cc(Cl)ccc5F)nc5ncccc45)c3)cn2)CC1 [compound 44, 2-(5-chloro-2-fluoro-phenyl)-4-(5-{1-[1-(2-methoxy-ethyl)-piperidin-4-yl]-1H-pyrazol-4-yl}-pyridin-3-yl)-[1,8]naphthyridine]",–
< 100,< 100,"OCCN1CCC(n2cc(-c3cncc(-c4cc(-c5cc(Cl)ccc5F)nc5ncccc45)c3)cn2)CC1 [compound 45, 2-[4-(4-{5-[2-(5-Chloro-2-fluoro-phenyl)-[1,8]naphthyridin-4-yl]-pyridin-3-yl}-pyrazol-1-yl)-piperidin-1-yl]-ethanol]",–
100 to 1000,< 100,"Fc1ccc(F)c(-c2cc(-c3cncc(-c4cnn(CCCN5CCOCC5)c4)c3)c3cccnc3n2)c1 [compound 48, 2-(2,5-Difluoro-phenyl)-4-{5-[1-(3-morpholin-4-yl-propyl)-1H-pyrazol-4-yl]-pyridin-3-yl}-[1,8]naphthyridine]",–
< 100,< 100,"Cc1cccc(-c2cc(-c3cncc(-c4cnn(C5CCN(C)CC5)c4)c3)c3cccnc3n2)n1 [compound 49, 4-{5-[1-(1-Methyl-piperidin-4-yl)-1H-pyrazol-4-yl]-pyridin-3-yl}-2-(6-methyl-pyridin-2-yl)-[1,8]naphthyridine]",–
< 100,< 100,"COCCN1CCC(n2cc(-c3cncc(-c4cc(-c5cc(F)ccc5F)nc5ncccc45)c3)cn2)CC1 [compound 50, 2-(2,5-Difluoro-phenyl)-4-(5-{1-[1-(2-methoxy-ethyl)-piperidin-4-yl]-1H-pyrazol-4-yl}-pyridin-3-yl)-[1,8]naphthyridine]",–

# Source: US8912216B2, “Hetaryl-[1,8]naphthyridine derivatives” (Merck Patent GmbH, priority 2010, dated 2014)
